Experimental data reported in ChEMBL document CHEMBL5034030, “Dolabrane Diterpenoids from the Chinese Liverwort Notoscyphus lutescens” (J Nat Prod, 2021).
Calls of active or inactive are those of the source. The calls are words filed in the database; no cut-off is given here.

Experiments:
Type in all cases: cell-based
[1] = target: NAD(P)H dehydrogenase [quinone] 1 (Mus musculus) (UniProt Q64669); assay: Induction of quinone reductase activity in mouse Hepa1c1c7 cells assessed as maximum fold change at 3.1 to 100 uM incubated for 24 hrs by MTT based assay; details: dose 3.1-100 µM
[2] = Cytotoxicity against mouse Hepa1c1c7 cells incubated for 24 hrs by MTT based assay; details: Hepa-1c1c7, 24 h
[3] = target: NAD(P)H dehydrogenase [quinone] 1 (Mus musculus) (UniProt Q64669); assay: Induction of quinone reductase activity in mouse Hepa1c1c7 cells assessed as maximum fold change at 50 uM incubated for 24 hrs by MTT based assay; details: filed as activator

Chain of NAD(P)H dehydrogenase [quinone] 1 (Mus musculus) (Q64669 whole entry): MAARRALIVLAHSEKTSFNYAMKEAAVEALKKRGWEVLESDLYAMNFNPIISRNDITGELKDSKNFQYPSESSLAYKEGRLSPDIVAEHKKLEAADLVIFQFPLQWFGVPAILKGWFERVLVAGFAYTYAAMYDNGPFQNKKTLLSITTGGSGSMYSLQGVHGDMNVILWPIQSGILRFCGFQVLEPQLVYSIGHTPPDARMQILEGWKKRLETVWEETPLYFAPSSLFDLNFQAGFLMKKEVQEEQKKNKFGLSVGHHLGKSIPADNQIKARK

Row | SMILES | Activity [1] | IC50 [2] [µM] | Activity [3]
1 | C=C[C@@]1(C)CC[C@@]2(C)[C@@H](CC[C@]34CO[C@@H](OC)C3=C[C@@H](O)C[C@@H]42)C1 | inactive | > 50 | 
2 | CC1=C(Cc2ccccc2)C(=O)O[C@H]1Cc1ccccc1 | inactive | > 50 | 
3 | C=C[C@@]1(C)CC[C@@]2(C)[C@@H](CC[C@]34CO[C@H](OC)C3=C[C@@H](O)C[C@@H]42)C1 | inactive | > 50 | 
4 | C=C[C@@]1(C)CC[C@]2(C)C3=C(CC[C@H]2C1)[C@](O)(CO)[C@@H](O)[C@H](Cl)C3 |  | > 50 | Active
5 | C=C[C@@]1(C)CC[C@@]2(C)[C@@H](C[C@@H]3[C@@H](O)C4=C[C@@H](O)C[C@H]2[C@@]43C)C1 | inactive | > 50 | 
6 | C=C[C@@]1(C)CC[C@@]2(C)[C@@H](CC=C3[C@@H]2C[C@@H](Cl)[C@H](O)[C@@]3(O)CO)C1 | inactive | > 50 | 
7 | C=C[C@@]1(C)CC[C@]2(C)C3C[C@H]4C=C(CO)[C@]3(CC[C@H]2C1)C(OC)O4 (stereo not given in full) |  | > 50 | Active
8 | C=C[C@@]1(C)CC[C@@]2(C)[C@@H](CC[C@]34COC(=O)[C@@H]3C[C@H](O)C[C@H]24)C1 |  | > 50 | Active
9 | C=C[C@@]1(C)CC[C@@]2(C)[C@@H](CC[C@@]3(C)[C@@H]2CCC(=O)[C@@H]3C)C1 | inactive | > 50 | 
10 | C=C[C@@]1(C)CC[C@]2(C)C3C[C@H]4C=C(C=O)[C@]3(CC[C@H]2C1)C(O)O4 (stereo not given in full) |  | > 50 | Active
